Non-standard residues stand in square brackets, D forms with d. Residues, ends and D or L forms follow the SMILES beside them.
What was measured:
[1] = tested on: primary patient-derived MLL-rearranged leukemia cells in NSG mice; assay: Patient-derived MLL-rearranged leukemia xenograft, treatment upon peripheral leukemia; assay type: in vivo, mouse; conditions: vs vehicle
Experimental: All mouse experiments were carried out in accordance with the Memorial Sloan Kettering Institutional Animal Care and Use Committee. For toxicity studies, female C57BL/6J mice (The Jackson Laboratory, Bar Harbor, Maine, USA) were treated with MYBMIM peptide suspended in PBS and administered daily through intraperitoneal injection at a dose of 25 mg/kg for a total of 7 days. Mice were sacrificed at the end of treatment for hematologic, biochemical and histologic analyses. For pharmacokinetic studies, C57BL/6J mice (The Jackson Laboratory, Bar Harbor, Maine, USA) were treated with a single IP injection of 25 mg/kg BIO-MYBMIM, and blood plasma was collected 30 min, 2 h, 4 h, and 24 h post-injection. Quantification of BIO-MYBMIM was measured using the Quant-Tag Biotin kit (Vector Labs, cat. # BDK-2000) following the manufacturer instructions. For patient-derived xenografts, two hundred thousand primary AML MLL-rearranged leukemia cells were suspended in […] of PBS and transplanted via tail vein injection into 8-week-old sublethally irradiated (200 rad) female NOD.Cg-Prkdc(scid)Il2rg(tm1Wjl)/SzJ mice (The Jackson Laboratory, Bar Harbor, Maine, USA). Recipient mice were maintained on antibiotic supplementation in chow (0.025% trimethoprim, 0.124% sulfamethoxazole, Sulfatrim). Three days after transplant, mice were randomly assigned to experimental treatment groups. […]

MV-411 cells = assay: Flow cytometric analysis of apoptosis; assay type: cell-based, human; conditions: 20 μM, 24 h, flow cytometry, p = 5.4e-3
Experimental: Cells were resuspended to a concentration of 1 × 10^6 cells were plated in triplicate in a 12-well tissue culture plate. For assessment of annexin V staining, cells were washed with PBS and then resuspended in PBS with Annexin V-APC (BioLegend) and propidium iodide at a dilution of 1:1000. For intracellular detection of cleaved caspase 3, cells were fixed and permeabilized using the BD Cytofix/Cytoperm Fixation/Permeabilization solution according to the manufacturer’s instructions (BD Biosciences). Cells were then stained using the Alexa Fluor 647-conjugated anti-active caspase-3 (BD Biosciences) at a dilution of 1:50. Cells were incubated for 30 minutes room temperature in the dark, washed, and then analyzed using the BD LSRFortessa cell analyzer. For assessment of differentiation, cells were stained using the anti-human CD14 PE at a dilution of 1:20 (Affymetrix eBiosciences) and anti-human CD66b at a dilution of 1:20 (Affymetrix eBiosciences).

MV411 and MOLM-13 cells = assay: Western blot of BCL2 protein; assay type: cell-based, human; conditions: 20 μM, 6 hours and 24 hours
Experimental: Cells were lysed in RIPA buffer (Thermo Fisher) supplemented with a protease inhibitor mix comprised of AEBSF (0.5 mM concentration, Santa Cruz, SC-202041B), Bestatin (0.01 mM, Fisher/Alfa Aesar, J61106-MD), Leupeptin (0.1 mM, Santa Cruz, SC-295358B), and Pepstatin (0.001 mM, Santa Cruz, SC-45036A). Lysates were mechanically disrupted using Covaris S220 adaptive focused sonicator, according to the manufacturer’s instructions (Covaris, Woburn, CA). Lysates were cleared by centrifugation for 15 min at 18,000 × g and clarified lysates were quantified using the bicinchoninic acid assay (Pierce). Clarified lysates (20 μg of protein) were resolved using sodium dodecyl sulfate-polyacrylamide gel electrophoresis, and electroeluted using the Immobilon FL PVDF membranes (Millipore, Billerica, MA, USA). Membranes were blocked using the Odyssey Blocking buffer (Li-Cor, Lincoln, Nebraska, USA). […] Blotted membranes were visualized using secondary antibodies conjugated to IRDye 800CW or IRDye 680RD (Goat anti-rabbit, 1:15,000, and goat anti-mouse, 1:15,000) and the Odyssey CLx fluorescence scanner, according to manufacturer’s instructions (Li-Cor, Lincoln, Nebraska, USA).
Supplementary Figure 9. BCL2 expression as measured by Western blot in MV411 and […]
ImageJ. BCL2 protein expression is quantified as a fraction of its respective PBS control […]

CC[C@@H](C)[C@@H](NC(=O)[C@@H](CCCCN)NC(=O)[C@@H](CCC(=O)O)NC(=O)[C@@H](CC(C)C)NC(=O)[C@@H](CCC(=O)O)NC(=O)[C@@H](CC(C)C)NC(=O)[C@@H](CC(C)C)NC(=O)[C@@H](CC(C)C)NC(=O)[C@@H](CCSC)NC(=O)[C@@H](CO)NC(=O)[C@H](NC(=O)[C@@H](CCC(=O)O)NC(=O)[C@@H](CC(N)=O)NC(=O)[C@@H](CCC(=O)O)NC(=O)[C@@H](CC(C)C)NC(=O)[C@@H](CCCCN)NC(C)=O)[C@H](C)O)C(=O)N[C@H](CCCNC(=N)N)C(=O)N[C@H](CCCCN)C(=O)NCC(=O)NCC(=O)N[C@H](CCCNC(=N)N)C(=O)N[C@H](CCCNC(=N)N)C(=O)N[C@H](CCCNC(=N)N)C(=O)N[C@H](CCC(N)=O)C(=O)N[C@H](CCCNC(=N)N)C(=O)N[C@H](CCCNC(=N)N)C(=O)N[C@H](CCCCN)C(=O)N[C@H](CCCCN)C(=O)N[C@H](CCCNC(=N)N)C(=O)NCC(=O)N[C@H](Cc1ccc(O)cc1)C(N)=O [MYBMIM] (Ac-[dK][dL][dE][dN][dE][dT][dS][dM][dL][dL][dL][dE][dL][dE][dK][dI][dR][dK]GG[dR][dR][dR][dQ][dR][dR][dK][dK][dR]G[dY]-NH2)
Leukemia burden by bone marrow analysis of human leukemia cells (hCD45) ([1]; NSG mice, 25 mg/kg IP twice daily, 21 days, 6 mice, p = 1.2e-4): significant reduction in leukemia burden | Levels of BCL2 in residual leukemia cells in the bone marrow ([1]; quantitative immunofluorescence, p = 0.3): minimal reduction | Apoptosis by cell surface annexin V and intracellular caspase 3 cleavage (MV-411 cells): significant apoptosis | BCL2 protein abundance (MV411 and MOLM-13 cells): significant albeit modest decrease

Source: PMC5760651, “Peptidomimetic blockade of MYB in acute myeloid leukemia” (Nature Communications, 2018)
